Test results published in US20240318142A1, “METHOD FOR PRODUCING RENAL INTERSTITIAL PROGENITOR CELLS, ERYTHROPOIETIN-PRODUCING CELLS, AND METHOD FOR PRODUCING RENIN-PRODUCING CELLS” (KYOTO UNIVERSITY, priority 2021, published 2024).

How the values were obtained:
hiPSC-derived IPCs [1] = assay: qRT-PCR of EPO after further differentiation induction from IPCs (renal EPO-producing cells); format: cell-based, human; conditions: for EPO expression compared to the combination of SB431542 and SAG: combination of A83-01 and SAG in CFR medium, FIG. 10; for effect on the SAG-induced EPO up-regulation: modulator together with SAG 500 nM, CHIR99021, RA, and A83-01; for effect on the SAG-induced EPO up-regulation / EPO expression: FIG. 15; for EPO expression: SHH signal modulators under induction conditions using CHIR99021, RA, and A83-01, Days 11 to 14; for expression of EPO: combination of SB431542 and SAG (500 nM), 5% O2, FG-4592 and RA present, FIG. 9
Procedure: (§1) FIG. 9 is a diagram illustrating results of qRT-PCR analysis of EPO and renin carried out on Days 11 to 14, that is, after obtaining renal interstitial progenitor cells, for comparison of the effects of combinations of candidate differentiation induction factors for renal EPO-producing cells or renin-producing cells. The SAG concentration was 500 nM, and the concentrations of SB and CHIR are expressed in the unit of μM.
(§2) FIG. 10 is a diagram illustrating results of qRT-PCR analysis of EPO and renin on Days 11 to 14, that is, after obtaining renal interstitial progenitor cells, for comparison of the effects of combinations of various candidate differentiation induction factors. The SAG concentration was 500 nM; the concentrations of SB and A83 are expressed in the unit of μM; LDN is expressed in the unit of nM; and TGFβ1, BMP7, and activin (ACT) are expressed in the unit of ng/mL.
FIG. 15 is a diagram illustrating results of qRT-PCR analysis of EPO carried out on Days 11 to 14, that is, after obtaining renal interstitial progenitor cells, for comparison of the effects of various Sonic Hedgehog (SHH) signal modulators under induction conditions using CHIR99021, RA, and A83-01. So, Vi, Pu, Sa, and Ga represent sonidegib, vismodegib, purmophamine, SANT-1, and GANT61, respectively, and their concentrations are expressed in the unit of μM. The concentration of SAG was 500 nM, and the concentration of SHH was 100 ng/mL.
(§3) First, using the IPCs on Day 11, culture was performed under 5% O2 hypoxic conditions in the presence of FG-4592 (N-[(4-hydroxy-1-methyl-7-phenoxy-3-isoquinolinyl)carbonyl]-glycine) and RA with addition of various factors. By measuring the expression of EPO and renin, screening for induction factors for renin-producing cells and renal EPO-producing cells was carried out.
Subsequently, the effects of various SHH signal modulators in a system for differentiation induction from IPCs to EPO-producing cells were investigated (FIG. 15). Several SMO antagonists (sonidegib, vismodegib, and SANT-1) and agonists (SAG and purmophamine), a GLI1 inhibitor (GANT61), and human SHH protein were tested.

[2] = test system: PPS cells obtained by differentiation induction from human iPS cells; assay: Induction of FOXD1-positive renal interstitial progenitor cells (IPC) from PPS cells, flow cytometric analysis (FOXD1 and OSR1) on Day 11; format: cell-based; conditions: for induction of FOXD1-positive cells: 5 days of treatment (Days 6 to 11) with the combination CHIR99021 1 μM, SB431542 10 μM and RA 100 nM, FIG. 3; for induction efficiency for OSR1-positive FOXD1-positive cells: addition of IL-1β (10 ng/mL) and SAG (500 nM) together on Days 6 to 8, FIG. 6
Procedure: FIG. 3 is a diagram illustrating results of flow cytometric analysis (FOXD1 and OSR1), carried out on Day 11, of cells that were treated with various combinations of factors during the differentiation induction period of Days 6 to 11 (the period corresponding to “Screening” in FIG. 1). The following concentrations were employed: 1 μM CHIR99021 (CHIR), 10 μM SB431542 (SB), 100 nM retinoic acid (RA), 200 ng/mL FGF9, and 25 ng/mL Noggin.
FIG. 5 is a diagram illustrating results of flow cytometric analysis (FOXD1 and OSR1), carried out on Day 11, of cells that were treated or not treated with Smoothened Agonist (SAG) (concentration, 500 nM) during the differentiation induction period of Days 6 to 8. ** indicates p<0.01 (Student's t-test), and NS indicates “no significant difference”.
FIG. 6 is a diagram illustrating results of flow cytometric analysis (FOXD1 and OSR1), carried out on Day 11, of cells that were treated with various factors during the differentiation induction period of Days 6 to 8. The following concentrations were employed: 1 μM CHIR, 10% Wnt3a, 200 ng/mLRSPO1 (R-Spondin-1), 500 nM SAG, 10 ng/mL IL-1β, 50 ng/mL Estradiol, and 10 ng/mL TGFβ1.
Human iPS cells (hiPSCs) (17K6:OSR1-GFP/FOXD1-tdTomato double knock-in hiPSCs) were first subjected to enzyme treatment for 5 minutes using a 1:1 mixture of TrypLE Select Enzyme (Thermo Fisher Scientific) and 0.5 mM EDTA/PBS, and then washed with PBS(−). Thereafter, the cells were detached using a cell scraper, and then dissociated into single cells by gentle pipetting. One day before the start of differentiation, the cells were plated into a 24-well plate (CORNING) at a density of 1.3×10^4 cells/cm^2 together with 0.5 mL of Stem Fit AK02N (Ajinomoto Healthy Supply Co., Inc.) supplemented with 10 μM Y-27632 and 2.4 μL/mL iMatrix-511 (Matrixome). Twenty-four hours later (Day 0), 5 μM CHIR99021 (Wako), 10 nM RA (Sigma), 1 ng/mL BMP4 (Peprotech), and 100 ng/mL bFGF (Wako) were added to a serum-free differentiation medium comprising DMEM/F12 Glutamax (Thermo Fisher Scientific), B27 supplement minus vitamin A (Thermo Fisher Scientific), and 0.5× penicillin/streptomycin (hereinafter referred to as basal medium), and then culture was started. Twenty-four hours thereafter (Day 1), culture was performed with a basal medium supplemented with 5 μM CHIR99021, 100 ng/mL bFGF, and 1 ng/mL BMP7 (R&D Systems). On Day 2, the medium was switched to a basal medium supplemented with 5 μM CHIR99021, 1 ng/mL BMP7, and 10 μM A83-01 (Wako). On Day 3, the medium was switched to a basal medium supplemented with 5 μM CHIR99021, 30 ng/mL bFGF, 10 ng/mL activin A (R&D Systems), and 30 μM Y-27632 (Wako). On Day 4, the cells were washed with PBS(−), treated with Accumax (Innovative Cell Technologies), and then dissociated into single cells by gentle pipetting, followed by plating into a 24-well plate (CORNING) at a density of 1.05×10^5 cells/cm^2 (2D culture) or plating into a 96-well low-cell-adhesive plate (Thermo Fisher Scientific) at a density of 2.0×10^4 cells/cm^2 (3D culture). Culture was performed for 48 hours using a basal medium supplemented with 5 μM CHIR99021, 30 ng/mL bFGF, 10 ng/mL activin A, and 30 μM Y-27632 (in addition, 1.2 μL/well iMatrix-511 or a laminin-E8 fragment library in the case of 2D culture). By this, HOXC10- and CITED1-positive PPS cells were induced.
For the PPS cells on Day 6 of the culture protocol in FIG. 1, several differentiation induction conditions were tested by combining various factors. […]

hiPSC-derived IPCs [3] = assay: qRT-PCR of renin and mesangial/JG cell markers after further differentiation induction from IPCs (renin-producing cells); format: cell-based, human
Procedure: as §1, §2
FIG. 11 is a diagram illustrating results of qRT-PCR analysis of renin on Days 11 to 14, that is, after obtaining renal interstitial progenitor cells, for comparison of the effects of various factors. In the presence of CHIR99021, RA, and FG-4592 (CFR), the effects of BMP4, BMP5, and BMP7 (10 ng/mL or 100 ng/mL) were investigated under conditions with or without treatment by SB431542 (1 μM). SB is expressed in the unit of […], and TGFβ1 and ACT are expressed in the unit of ng/mL.
FIG. 12 is a diagram illustrating results of qRT-PCR analysis of marker expression for the mesangial cell lineage (GATA3, renin, and GJA5) and IPCs (FOXD1) at Hour 0 and Hour 96 after treatment with CFR+BMP7+SB. iPSC represents the control.
FIG. 13 is a diagram illustrating results of qRT-PCR analysis of cells that were subjected to treatment under hypoxic (CFR+B7+SB in 5% O2) or normal oxygen (CFR+B7+SB minus FG-4592 in 20% O2) conditions on Days 11 to 15, that is, after obtaining renal interstitial progenitor cells, which analysis was carried out for markers for JG (renin and GJA4) and mesangial cells (EBF1, GJA5, ITGA8, and GATA3). * indicates p<0.05; ** indicates p<0.01; and NS indicates “no significant difference” (Student's t-test).
FIG. 14 is a diagram illustrating results of qRT-PCR analysis of cells that were subjected to treatment with VEGF (100 ng/mL) or axitinib (3 μM) and also to treatment under hypoxic conditions (CFR+B7+SB in 5% O2) or normal conditions (CFR+B7+SB minus FG-4592 in 20% O2) on Days 11 to 15, that is, after obtaining renal interstitial progenitor cells, which analysis was carried out for markers for JG (renin and GJA4), mesangial cells (EBF1, GJA5, ITGA8, and GATA3), and VEGFA.
as §3

[4] = combination of CHIR99021 and SB431542, absence of SAG, 5% O2, FG-4592 and RA present, FIG. 9
[5] = BMP (10 or 100 ng/mL) added to CFR medium in the presence of SB431542 (1 μM), FIG. 11

Cc1cccc(-c2nn(C(=S)Nc3ccccc3)cc2-c2ccnc3ccccc23)n1 [A83-01]
EPO expression compared to the combination of SB431542 and SAG (hiPSC-derived IPCs [1]): higher EPO expression

Cc1c[nH]c(-c2cnc(NCCNc3ccc(C#N)cn3)nc2-c2ccc(Cl)cc2Cl)n1 [CHIR99021]
induction of FOXD1-positive cells [2]: could be induced
expression of renin (hiPSC-derived IPCs [3]; [4]): increase the expression of renin

CN(C)c1ccccc1CN1CCCN(Cc2ccccc2N(C)C)C1c1ccncc1 [GANT61]
effect on the SAG-induced EPO up-regulation (hiPSC-derived IPCs [1]): did not reduce the effect of SAG

CNC1CCC(N(Cc2cccc(-c3ccncc3)c2)C(=O)c2sc3ccccc3c2Cl)CC1 (stereo not shown) [SAG]
induction efficiency for FOXD1-positive cells ([2]; SAG 500 nM added on Days 6 to 8 to CHIR99021+SB431542+RA, FIG. 5): further increased
induction efficiency for OSR1-positive FOXD1-positive cells [2]: increases
EPO expression (hiPSC-derived IPCs [1]): up-regulation of EPO
EPO expression compared to the combination of SB431542 and SAG (hiPSC-derived IPCs [1]): higher EPO expression
expression of EPO (hiPSC-derived IPCs [1]): increase the expression of EPO

Cc1nn(-c2ccccc2)c(C)c1/C=N/N1CCN(Cc2ccccc2)CC1 [SANT-1]
effect on the SAG-induced EPO up-regulation (hiPSC-derived IPCs [1]): reduced the effect of SAG

NC(=O)c1ccc(-c2nc(-c3ccc4c(c3)OCO4)c(-c3ccccn3)[nH]2)cc1 [SB431542]
induction of FOXD1-positive cells [2]: could be induced
expression of renin (hiPSC-derived IPCs [3]; [4]): increase the expression of renin
expression of EPO (hiPSC-derived IPCs [1]): increase the expression of EPO

c1ccc2c(Oc3nc(Nc4ccc(N5CCOCC5)cc4)c4ncn(C5CCCCC5)c4n3)cccc2c1 [purmophamine, 9-cyclohexyl-N-[4-(4-morpholinyl)phenyl]-2-(1-naphthalenyloxy)-9H-purine-6-amine]
EPO expression (hiPSC-derived IPCs [1]): up-regulation of EPO

Cc1c(C(=O)Nc2ccc(N3C[C@@H](C)O[C@@H](C)C3)nc2)cccc1-c1ccc(OC(F)(F)F)cc1 [sonidegib]
effect on the SAG-induced EPO up-regulation (hiPSC-derived IPCs [1]): reduced the effect of SAG

CS(=O)(=O)c1ccc(C(=O)Nc2ccc(Cl)c(-c3ccccn3)c2)c(Cl)c1 [vismodegib]
effect on the SAG-induced EPO up-regulation (hiPSC-derived IPCs [1]): reduced the effect of SAG

IL-1β: interleukin-1β, preferably human IL-1β protein
induction efficiency for OSR1-positive FOXD1-positive cells [2]: increases

VEGF
expression of markers for juxtaglomerular (JG) cells and mesangial cells (hiPSC-derived IPCs [3]; VEGF 100 ng/mL added to CFR+B7+SB, Days 11 to 15, FIG. 14): increases

B1: BMP7: bone morphogenetic protein 7 (protein, UniProt P18075 293-431, looked up)
Bone morphogenetic protein 7: STGSKQRSQNRSKTPKNQEALRMANVAENSSSDQRQACKKHELYVSFRDLGWQDWIIAPEGYAAYYCEGECAFPLNSYMNATNHAIVQTLVHFINPETVPKPCCAPTQLNAISVLYFDDSSNVILKKYRNMVVRACGCH
expression of renin (hiPSC-derived IPCs [3]; [5]): high expression of renin
expression of renin (hiPSC-derived IPCs [3]; added to CFR medium (CHIR99021, FG-4592, RA), absence of SAG, FIG. 10): positively affected

B2: BMP4: bone morphogenetic protein 4 (protein, UniProt P12644 293-408, looked up)
Bone morphogenetic protein 4: SPKHHSQRARKKNKNCRRHSLYVDFSDVGWNDWIVAPPGYQAFYCHGDCPFPLADHLNSTNHAIVQTLVNSVNSSIPKACCVPTELSAISMLYLDEYDKVVLKNYQEMVVEGCGCR
expression of renin (hiPSC-derived IPCs [3]; [5]): high expression of renin

B3: BMP5: bone morphogenetic protein 5 (protein, UniProt P22003 317-454, looked up)
Bone morphogenetic protein 5: AANKRKNQNRNKSSSHQDSSRMSSVGDYNTSEQKQACKKHELYVSFRDLGWQDWIIAPEGYAAFYCDGECSFPLNAHMNATNHAIVQTLVHLMFPDHVPKPCCAPTKLNAISVLYFDDSSNVILKKYRNMVVRSCGCH
expression of renin (hiPSC-derived IPCs [3]; [5]): high expression of renin
